In experiment [1] the target is Human immunodeficiency virus type 1 protease (Human immunodeficiency virus 1) (UniProt Q72874). Put plainly: Antiviral potency of HIV-1 in MT-4 human T lymphoid cells with IIIb isolate. The class given is functional, cell-based.
The target in experiment [2] is Human immunodeficiency virus type 1 protease (Human immunodeficiency virus 1, UniProt Q72874). Put plainly: Tested against S2-binding site of HIV-1 protease.
Another experiment has as its system MT4. Put plainly: Compound tested for the antiviral potency of HIV-1 in MT-4 human T lymphoid cells with IIIb isolate (n=5). The class given is functional. The note with it: read-out: CIC95.

What is called IC50 is the midpoint of a concentration-inhibition curve. Read a low IC50 as greater potency. In experiment [1], `CC(C)C[C@@H]1[C@H](OC(=O)N[C@@H](Cc2ccccc2)[C@H](O)CN2C[C@H]3CCCC[C@H]3C[C@H]2C(=O)NC(C)(C)C)CCS1(=O)=O` came in with an IC95 of 1500 nM. The compound further registered an IC50 in experiment [2] of 30 nM.

For the compound `NC(=O)OC[C@@H]1CCCOC1`, in experiment [2], the IC50 came out at 694 nM. That is a sub-micromolar value.

Regarding `CC(C)(C)NC(=O)[C@@H]1C[C@@H]2CCCC[C@@H]2CN1C[C@@H](O)[C@H](Cc1ccccc1)NC(=O)O[C@H]1CCOC1`, the IC95 in experiment [1] is 800 nM.

Take `C[C@H]1[C@@H](OC(=O)N[C@@H](Cc2ccccc2)[C@H](O)CN2C[C@H]3CCCC[C@H]3C[C@H]2C(=O)NC(C)(C)C)CCS1(=O)=O`: in experiment [1], the IC95 turned out to be 200 nM. Also, in experiment [2], the half-maximal inhibitory concentration (IC50) was found to be 11.4 nM.

In turn, `CC[C@@H]1[C@H](OC(=O)N[C@@H](Cc2ccccc2)[C@H](O)CN2C[C@H]3CCCC[C@H]3C[C@H]2C(=O)NC(C)(C)C)CCS1(=O)=O` came in with an IC95 in experiment [1] of 800 nM. The compound further gave an IC50 in experiment [2] of 13.1 nM.

The compound `C[C@@H]1[C@H](OC(=O)N[C@@H](Cc2ccccc2)[C@H](O)CN2C[C@H]3CCCC[C@H]3C[C@H]2C(=O)NC(C)(C)C)CCS1(=O)=O` yielded an IC95 in experiment [1] of 200 nM. This compound also showed a concentration for half-maximal inhibition (IC50) in experiment [2] of 22.3 nM.

In experiment [2], `CC(C)(C)NC(=O)[C@@H]1C[C@@H]2CCCC[C@@H]2CN1C[C@@H](O)[C@H](Cc1ccccc1)NC(=O)OCCS(C)(=O)=O` returned an IC50 of 1030 nM.

On to `C[C@H]1OCC[C@H]1OC(=O)N[C@@H](Cc1ccccc1)[C@H](O)CN1C[C@H]2CCCC[C@H]2C[C@H]1C(=O)NC(C)(C)C`, for which the IC95 in experiment [1] was 1600 nM. For the same compound, the IC50 in experiment [2] is 169 nM.

On to `CC(C)[C@H]1SCC[C@H]1OC(=O)N[C@@H](Cc1ccccc1)[C@H](O)CN1C[C@H]2CCCC[C@H]2C[C@H]1C(=O)NC(C)(C)C`, for which the IC50 in experiment [2] was 9 nM. In other words, the single-digit nanomolar range.

In the case of `CC[C@H]1[C@@H](OC(=O)N[C@@H](Cc2ccccc2)[C@H](O)CN2C[C@H]3CCCC[C@H]3C[C@H]2C(=O)NC(C)(C)C)CCS1(=O)=O`, the IC95 in experiment [1] was 400 nM. Besides, the 50% inhibitory concentration (IC50) in experiment [2] stood at 5.4 nM.

Turning to `CC(C)[C@@H]1[C@H](OC(=O)N[C@@H](Cc2ccccc2)[C@H](O)CN2C[C@H]3CCCC[C@H]3C[C@H]2C(=O)NC(C)(C)C)CCS1(=O)=O`, in experiment [1], the IC95 was 50 nM. This compound also displayed a 50% inhibitory concentration (IC50) in experiment [2] of 3 nM.

With `C[C@@H]1OCC[C@@H]1OC(=O)N[C@@H](Cc1ccccc1)[C@H](O)CN1C[C@H]2CCCC[C@H]2C[C@H]1C(=O)NC(C)(C)C`, in experiment [1], the IC95 was 400 nM. The compound also had an IC50 in experiment [2] of 52.4 nM.

In turn, `CC(C)[C@H]1[C@@H](OC(=O)N[C@@H](Cc2ccccc2)[C@H](O)CN2C[C@H]3CCCC[C@H]3C[C@H]2C(=O)NC(C)(C)C)CCS1(=O)=O` came in with an IC95 in experiment [1] of 200 nM. In experiment [2], the IC50 worked out at 11 nM.

On to `CC(C)(C)NC(=O)[C@@H]1C[C@@H]2CCCC[C@@H]2CN1C[C@@H](O)[C@H](Cc1ccccc1)NC(=O)O[C@@H]1CCS(=O)(=O)C1`, for which the IC95 in experiment [1] is greater than 800 nM. The same compound showed an IC50 in experiment [2] of 140 nM.

Regarding `CC(C)(C)NC(=O)[C@@H]1C[C@@H]2CCCC[C@@H]2CN1C[C@@H](O)[C@H](Cc1ccccc1)NC(=O)O[C@H]1CCS(=O)(=O)C1`, the IC95 in the experiment with MT4 is 350 nM. Further, in experiment [2], the IC50 is 75 nM.

As to `CC(C)C[C@H]1[C@@H](OC(=O)N[C@@H](Cc2ccccc2)[C@H](O)CN2C[C@H]3CCCC[C@H]3C[C@H]2C(=O)NC(C)(C)C)CCS1(=O)=O`, the IC95 in experiment [1] is 400 nM. Further, the half-inhibitory concentration (IC50) in experiment [2] stood at 12 nM.

These data come from ChEMBL document CHEMBL1126634, “Cyclic sulfolanes as novel and high affinity P2 ligands for HIV-1 protease inhibitors” (J Med Chem, 1993).
